Experimental data reported in patent US10071163B2, “Compositions and methods for selective delivery of oligonucleotide molecules to specific neuron types” (nLife Therapeutics, S.L., priority 2010, dated 2018).

Assays:
5-HTT mRNA = assay: In situ hybridization of 5-HTT mRNA after intranasal 5-HTT-NLF-siRNA; assay type: in vivo, mice (C57BL/6J)
Procedure: Twenty-four h after treatment, mice were killed by decapitation and the brains rapidly removed, frozen on dry ice and stored at −20° C. Tissue sections, 14 μm thick, were cut using a microtome-cryostat, thaw-mounted onto APTS (3-aminopropyltriethoxysilane) coated slides and kept at −20° C. until use.
To determine 5-HTT mRNA expression level, in situ hybridization assays were performed using an oligodeoxyribonucleotide probe specific for 5-HIT, complementary to bases 820-863 (Mouse, GenBank Accession Number: NM_010484). The 5-HTT oligonucleotide was individually labeled (2 pmol) at its 3′-end with [^33P]-dATP (>2500 Ci/mmol) using terminal deoxynucleotidyltransferase, purified by centrifugation using QIAquick Nucleotide Removal Kit. The protocols for single label in situ hybridization were based on previously described procedures. Briefly, frozen tissue sections, as described in example 2, were first brought to room temperature, fixed for 20 min at 4° C. in 4% paraformaldehyde in phosphate buffered saline (1×PBS: 8 mM Na2HPO4, 1.4 mM KH2PO4, 136 mM NaCl, 2.6 mM KCl), washed for 5 min in 3×PBS at room temperature, twice for 5 min each in 1×PBS and incubated for 2 min at 21° C. in a solution of pre-digested pronase at a final concentration of 24 U/ml in 50 mM Tris-HCl pH 7.5, 5 mM EDTA. The enzymatic activity was stopped by immersion for 30 s in 2 mg/ml glycine in 1×PBS. […]

[1] = system: serotonin transporter (5-HTT); assay: [3H]citalopram autoradiographic binding of serotonin transporter after intranasal 5-HTT-NLF-siRNA; assay type: in vivo, mice; details: vs vehicle or NLF-nonsense-siRNA, FIG. 15B-C
Excerpt: 24-48. h after NLF-siRNA intranasal administration, mice were killed and their brains were removed and serial coronal sections of 14 μm thickness were obtained at the following AP coordinates, in mm, relative to bregma (Franklin and Paxinos, 1997): 2.2 (prefrontal cortex-PFC), 1.1 to 0.6 (caudate putamen—CPu, lateral and medial septal nucleus—Sep, ventral pallidum—VP), −1.5 to −1.8 (hippocampus—HPC, hypothalamus—Hip) and −4.24 to −4.96 (dorsal raphe nucleus—DR and median raphe nucleus—MnR). Briefly, frozen tissue sections were thawed and dried, preincubated in 50 mM Tris-HCl buffer (pH 7.4 at 25° C.) containing 120 mM NaCl and 5 mM KCl for 15 mm at room temperature. […] After incubation and washing, tissue sections were dipped in distilled ice-cold water and dried rapidly under a cold air stream. Tissues were exposed to tritium-sensitive film together with plastic ^3H-standards for 40 days at 4° C. Quantitative analysis of the autoradiograms was done with AIS computerized image analysis system. By using tissue-calibrated data from the co-exposed radioactive standards, OD values of autoradiograms were transformed to levels of radioactivity bound (nCi/mg tissue protein) to specific brain regions in tissue sections.

## 5-HTT-NLF-siRNA: 5-HTT-targeted siRNA (SEQ ID NO 14/15) conjugated to a group of formula (I) and one targeting agent (sertraline) (chain 1 GCUAGCUACAACAAGUUCATT; chain 2 UGAACUUGUUGUAGCUAGCTT; further chemistry not given here)
5-HTT mRNA; intranasal 10 and 30 μg, vs vehicle and nonsense-NLF-siRNA, FIG. 15A
  5-HTT mRNA level in dorsal (DR) and median (MnR) raphe nuclei: reduction of 5-HTT mRNA level
5-HTT mRNA; intranasal, both doses (10 and 30 μg/mice), three antero-posterior coordinates, FIG. 14A
  knockdown of 5-HTT mRNA in dorsal raphe nuclei: specific knowdown of 5-HTT mRNA
[1]
  serotonin transporter levels in the different brain areas: reduction of the serotonin transporter levels
